# Columns and labels:
# Ramos [1] = assay: Clonogenic assay in methylcellulose; type: cell-based, human; settings: Ramos B cells
# Ramos cells = assay: Anti-phosphotyrosine western blot of cell lysates; type: cell-based, human; settings: FIG. 11; whole cell lysates
# Ramos [2] = assay: Clonogenic assay in methylcellulose; type: cell-based, human; settings: doses of 10 and 25 μM
# Protocol: The selective cytotoxicity of BMLOV was examined in clonogenic assays. Cells were grown in methylcellulose media and the number of colonies formed after seven days of treatment with various doses of the drug were determined. The clonogenic assays were performed with six replicates for each treatment as described [F. M. Uckun et al., J. Exp. Med. 163:347-368 (1986); F. M. Uckun & J. A. Ledbetter, Proc. Natl. Acad. Sci. USA 85:8603-8607 (1988)). The data is given plus/minus the standard error of the mean.
# For assays of cellular proliferation, cells were grown five days in the presence of the indicated concentrations of BMLOV, pulsed 6 hr with [^3 H]-thymidine (New England Nuclear, Boston, Mass.), and counted in a liquid scintillation counter. Human peripheral blood lymphocytes (PBL) from normal volunteers were isolated from lymphocyte separation medium (Litton Bionetics, Kensington, Md.) by density gradient centrifugation. Monocytes were depleted from PBL by two rounds of plastic absorption for 30 minutes at 37° C. B cells were enriched for by negative selection using complement plus monoclonal antibodies to CD2, CD3, CD4, and CD8 for complement depletion. Clonogenic assays of colony formation in methylcellulose medium were performed as previously described (F. M. Uckun et al. (1992), supra).
# A2780 = assay: In vitro cytotoxicity, XTT assay; settings: Homo sapiens, A2780, 72 h, read-out: IC50 (cytotoxicity)
# Protocol: (§1) The vanadate compound pV(phen) was tested for in vitro cytotoxicity in a panel of human tumor cell lines. The cell lines used were a human colon carcinoma cell line, HCT116, and two drug-resistant sublines. The HCT116(VM46) subline was selected for resistance to VM-26 and expresses the multidrug resistant (MDR) phenotype including resistance to lipophilic anticancer drugs such as paclitaxel, VP-16, VM-26, doxorubicin, and vinblastine. This cell line overexpresses P-glycoprotein, a cell surface drug efflux pump, which limits accumulation of anticancer drugs such as the ones mentioned above. […] The compound pV(phen) was also evaluated in the ovarian carcinoma cell line A2780 and a paclitaxel resistant subline A2780-Tax22.
# (§2) In the cytotoxicity assays, cells were plated and 24 hr later drugs were added and serially diluted. After 72 hr of continuous drug exposure, the tetrazolium dye XTT was added. A dehydrogenase enzyme in live cells reduces the XTT to a form that absorbs light at 450 nm which can be quantitated spectrophotometrically. The greater absorbance, the greater is the number of live cells. The results are expressed as a IC50 which is a drug concentration required to inhibit cell proliferation (i.e., absorbance at 450 nm) to 50% of that of untreated control cells.
# HCT116(VP)35 = assay: In vitro cytotoxicity, XTT assay
# Protocol: as §1, §2
# A2780/Tax22 = assay: In vitro cytotoxicity, XTT assay
# Protocol: as §1, §2
# HCT116(VM)46 = assay: In vitro cytotoxicity, XTT assay
# Protocol: as §1, §2
# HCT116 = assay: In vitro cytotoxicity, XTT assay; settings: Homo sapiens, HCT-116, 72 h, read-out: IC50 (cytotoxicity)
# Protocol: as §1, §2
# [3] = test system: calf intestinal alkaline phosphatase; settings: reported by Cortizo et al.; cited from earlier work
# Ramos [4] = settings: previous studies (Uckun et al. 1992); cited from earlier work
smiles,measurement,setting,value
CC(=O)C=C(C)[O-].CC(=O)C=C(C)[O-].[Cu+2] [cupric acetylacetonate],Colonies,Ramos [1]; 1 μM cupric acetylacetonate,5749
same,Colonies,Ramos [1]; 5 μM cupric acetylacetonate,226
same,Colonies,Ramos [1]; 10 μM cupric acetylacetonate,127
same,Colonies,Ramos [1]; 25 μM cupric acetylacetonate,31
same,induction of cellular tyrosine phosphorylation by analogs,Ramos cells,"induced tyrosine phosphorylation, but in a different pattern than for the vanadyl compounds"
same,"sensitivity in clonogenic assay, in words",Ramos [2],sensitive to the compound
"CC(=O)O[C@H]1C(=O)[C@@]2(C)[C@H]([C@H](OC(=O)c3ccccc3)[C@]3(O)C[C@H](OC(=O)[C@H](O)[C@@H](NC(=O)c4ccccc4)c4ccccc4)C(C)=C1C3(C)C)[C@]1(OC(C)=O)CO[C@@H]1C[C@@H]2O [Paclitaxel, reference compound]",IC50,A2780,4 nM
same,IC50,"HCT116(VP)35; Homo sapiens, HCT-116, 72 h, read-out: IC50 (cytotoxicity)",2 nM
same,fold resistance relative to parental cell line,"HCT116(VP)35; vs HCT116, 4320 min",0.7 fold
same,IC50,"A2780/Tax22; Homo sapiens, A2780, 72 h, read-out: IC50 (cytotoxicity)",75 nM
same,fold resistance relative to parental cell line,"A2780/Tax22; vs A2780, 4320 min",18 fold
same,IC50,"HCT116(VM)46; Homo sapiens, HCT-116/VM46, 72 h, read-out: IC50 (cytotoxicity)",226 nM
same,fold resistance relative to parental cell line,"HCT116(VM)46; vs HCT116, 4320 min",75 fold
same,IC50,HCT116,3 nM
CC(=O)C=C([O-])c1ccccc1.CC(=O)C=C([O-])c1ccccc1.[O]=[V+2] [vanadyl 1-benzoyl acetonate],induction of cellular tyrosine phosphorylation by analogs,Ramos cells,strongly induced cellular tyrosine phosphorylation
CC(=O)/C=C(/C)[O-].CC(=O)/C=C(/C)[O-].[O]=[V+2] [vanadyl acetylacetonate],induction of cellular tyrosine phosphorylation by analogs,Ramos cells,strongly induced cellular tyrosine phosphorylation
[Na+].[Na+].[Na+].[O]=[V]([O-])([O-])[O-] [sodium orthovanadate],concentration strongly inhibiting calf intestinal alkaline phosphatase,[3],less than 20 μM
same,effect on Ramos cells in clonogenic assays,Ramos [4],only gave slight effects
